Assay results reported in ChEMBL document CHEMBL5625264, “Identification of (4-chlorophenyl)(5-hydroxynaphtho[1,2-b]furan-3-yl)methanone as novel COX-2 inhibitor with analgesic profile” (Bioorg Med Chem Lett, 2024).
Activity calls are given as the source filed them. The rule behind the calls is not given here.

Key:
Mus musculus [1] = assay: Analgesic activity in ip dosed CFA-induced ICR mouse model of chronic inflammatory pain pretreated with CFA for 3 days followed by compound administration and measured at 30 to 300 min by pain behavior test; type: functional, organism-based; details: time 30-300 min
Mus musculus [2] = assay: Analgesic activity in ip dosed formalin-induced ICR mouse model of acute inflammatory pain; type: functional, organism-based

| Structure (SMILES) | Activity (Mus musculus [1]) | Activity (Mus musculus [2]) |
| --- | --- | --- |
| O=C(c1ccc(Cl)cc1)c1coc2c1cc(O)c1ccccc12 | Active | Active |
| O=C(Nc1ccccc1NC(=O)c1ccc2c(c1)OCO2)c1ccc2c(c1)OCO2 | Active | – |
| NS(=O)(=O)c1ccc(-c2sncc2-c2ccc(F)cc2)cc1 | Active | Active |
